Among the test systems are ACHN renal; OVCAR-3 ovarian; SK-MEL-28 melanoma; HCT-15 colon; HCT-116 colon; OVCAR-8 ovarian; DU-145 prostate; COLO 205 colon; MCF7 breast; MOLT-4 leukemia.
What all share (assay): growth of human tumour cells (NCI), 48 h

Structures are written as SMILES.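 A five-concentration, 48-hour dose response in 96-well plates underlies each endpoint, interpolated linearly between surrounding concentrations. TGI: concentration producing complete growth inhibition.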

With `CCOC(=O)c1nc2ccc(C(F)(F)F)cc2nc1Oc1cc(OC)c(OC)c(OC)c1`, the TGI in the assay with ACHN renal, in the assay on OVCAR-3 ovarian, in the assay with SK-MEL-28 melanoma, in the assay with HCT-15 colon, in the assay on HCT-116 colon and in the assay with OVCAR-8 ovarian was over 100 µM throughout. The TGI in the assay on DU-145 prostate is over 100 µM; with COLO 205 colon it was 63.7 µM; in the assay on MCF7 breast it was over 100 µM; in the assay with MOLT-4 leukemia, over 100 µM.
On to `CC(C)CNc1nc2ncnc(N)c2[nH]1`, for which the TGI in the assay with ACHN renal, in the assay with OVCAR-3 ovarian, with SK-MEL-28 melanoma, with HCT-15 colon, in the assay with HCT-116 colon and in the assay on OVCAR-8 ovarian was over 100 µM in each case. The TGI with DU-145 prostate, with COLO 205 colon, with MCF7 breast and in the assay with MOLT-4 leukemia was over 100 µM throughout.
Turning to `Cc1ccc(/C(O)=C/c2nc3ccccc3sc2=O)c(C)c1`, the TGI with ACHN renal, in the assay on OVCAR-3 ovarian, with SK-MEL-28 melanoma, in the assay with HCT-15 colon, with HCT-116 colon and in the assay with OVCAR-8 ovarian was over 100 µM in each case. The TGI with DU-145 prostate, in the assay on COLO 205 colon, with MCF7 breast and in the assay with MOLT-4 leukemia was over 100 µM in each case.
For the molecule `Cc1ccc([S@](=O)c2occc2C=O)cc1`, the TGI in the assay on ACHN renal was found to be 28.7 µM; with OVCAR-3 ovarian it was 6.41 µM; in the assay on SK-MEL-28 melanoma, 9.02 µM; in the assay on HCT-15 colon, 9.84 µM; in the assay with HCT-116 colon, 9.64 µM; with OVCAR-8 ovarian, 25.4 µM. For the same molecule, the TGI in the assay on DU-145 prostate worked out at 33.1 µM; with COLO 205 colon, 28.9 µM; in the assay on MCF7 breast it was 13.3 µM; in the assay on MOLT-4 leukemia it was 4.16 µM.
In the case of `CCN(CC)N1C(=O)[N+](CC)(CC)N=C1[O-]`, the TGI in the assay with ACHN renal, with OVCAR-3 ovarian, in the assay with SK-MEL-28 melanoma, with HCT-15 colon, with HCT-116 colon and with OVCAR-8 ovarian was over 100 µM each time. In addition, the TGI in the assay on DU-145 prostate, with COLO 205 colon, in the assay on MCF7 breast and with MOLT-4 leukemia was over 100 µM each time.

Source of the values: PubChem BioAssay (NCI).
